Assay results taken from US10858339B2, “Aryl cyclopropyl-amino-isoquinolinyl amide compounds” (priority 2017, dated 2020).

Assays:
[1] = Rabbit IOP after intracameral injection; assay type: in vivo; conditions: intracameral injection of a formulation, FIG. 1
Excerpt: Examples of such assays are described in the following reference, incorporated herein by reference: C. Liljebris, G. Selen, B. Resul, J. Sternschantz, and U. Hacksell, “Derivatives of 17-phenyl-18,19,20-trinorprostaglandin F2α Isopropyl Ester: Potential Anti-glaucoma Agents”, Journal of Medicinal Chemistry 1995, 38 (2): 289-304.

[2] = target: T1, IKKb (Homo sapiens, UniProt O14920); experiment: IKKb kinase activity; assay type: biochemical; conditions: Table 17
T1 sequence (O14920 1-756): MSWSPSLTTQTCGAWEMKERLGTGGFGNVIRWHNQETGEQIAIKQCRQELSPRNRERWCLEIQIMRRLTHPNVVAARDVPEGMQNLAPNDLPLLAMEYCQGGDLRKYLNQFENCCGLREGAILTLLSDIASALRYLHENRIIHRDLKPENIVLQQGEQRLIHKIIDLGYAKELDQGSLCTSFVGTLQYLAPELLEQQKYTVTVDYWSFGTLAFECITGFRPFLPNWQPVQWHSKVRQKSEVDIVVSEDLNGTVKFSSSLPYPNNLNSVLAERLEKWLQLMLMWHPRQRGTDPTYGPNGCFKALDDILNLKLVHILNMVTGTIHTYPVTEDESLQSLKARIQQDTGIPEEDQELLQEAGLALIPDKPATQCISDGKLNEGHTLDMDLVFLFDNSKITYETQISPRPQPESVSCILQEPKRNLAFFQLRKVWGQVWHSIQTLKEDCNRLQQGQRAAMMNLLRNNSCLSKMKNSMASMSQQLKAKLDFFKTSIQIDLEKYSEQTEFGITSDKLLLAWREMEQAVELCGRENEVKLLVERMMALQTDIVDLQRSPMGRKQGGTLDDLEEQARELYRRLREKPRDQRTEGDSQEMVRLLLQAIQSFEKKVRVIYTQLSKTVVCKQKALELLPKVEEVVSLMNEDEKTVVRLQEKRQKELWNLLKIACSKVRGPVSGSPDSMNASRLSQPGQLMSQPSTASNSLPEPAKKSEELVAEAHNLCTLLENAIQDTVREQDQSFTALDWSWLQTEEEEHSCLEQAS

[3] = target: ROCK1 (Homo sapiens, UniProt Q13464); experiment: ROCK kinase inhibition assay, ROCK1 enzyme; assay type: biochemical; conditions: ROCK1, Table 17;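 further: kinase reaction with 0.5 µM final ATP, 75 min at room temperature, remaining ATP read by luminescence, percent of DMSO-only control minus background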
[4] = test system: Porcine Trabecular Meshwork cells (PTM); experiment: PTM-HTM assay, actin fiber length in PTM cells; assay type: cell-based; conditions: Sus scrofa; Table 17; porcine trabecular meshwork cells; read-out: PTM
Protocol: Porcine Trabecular Meshwork cells (PTM) were isolated from freshly obtained enucleated porcine eyes. Immortalized Human Trabecular Meshwork cells (TM-1) were obtained through a kind gift from Donna Peters in the Department of Ophthalmology and Visual Sciences at the University of Wisconsin. Cells were plated onto fibronectin coated glass-bottom 96-well plates and allowed to attach overnight. Media was removed and replaced with test compound in media with 1% fetal bovine serum and incubated for various times. After incubation, cells were formaldehyde fixed, triton solubilized, and stained. PTM cells were stained with Alexa Fluor®488 phalloidin (F-actin) and Hoechst 33342 (nuclei). TM-1 cells were stained with anti-paxillin followed by Alexa Fluor®488 goat-anti-mouse IgG (focal adhesions) and Hoechst 33342 (nuclei). All staining reagents were obtained through Invitrogen. Images were collected on an INCell 2200 imager with a 20× objective. The actin fiber length and total area of focal adhesions were analyzed using custom algorithms developed in the INCell Developer Toolbox, v1.9.3. Data collected were converted to percent of control (untreated cells). Curves were fit to data in GraphPad Prizm using sigmoidal dose-response and constraining top and bottom to 100% and 0%, respectively.

[5] = target: T2, JAK3 (Homo sapiens, UniProt P52333); experiment: JAK kinase assay, JAK3 enzyme; assay type: biochemical; conditions: Table 17; read-out: JAK3
T2 sequence (P52333 1-1124): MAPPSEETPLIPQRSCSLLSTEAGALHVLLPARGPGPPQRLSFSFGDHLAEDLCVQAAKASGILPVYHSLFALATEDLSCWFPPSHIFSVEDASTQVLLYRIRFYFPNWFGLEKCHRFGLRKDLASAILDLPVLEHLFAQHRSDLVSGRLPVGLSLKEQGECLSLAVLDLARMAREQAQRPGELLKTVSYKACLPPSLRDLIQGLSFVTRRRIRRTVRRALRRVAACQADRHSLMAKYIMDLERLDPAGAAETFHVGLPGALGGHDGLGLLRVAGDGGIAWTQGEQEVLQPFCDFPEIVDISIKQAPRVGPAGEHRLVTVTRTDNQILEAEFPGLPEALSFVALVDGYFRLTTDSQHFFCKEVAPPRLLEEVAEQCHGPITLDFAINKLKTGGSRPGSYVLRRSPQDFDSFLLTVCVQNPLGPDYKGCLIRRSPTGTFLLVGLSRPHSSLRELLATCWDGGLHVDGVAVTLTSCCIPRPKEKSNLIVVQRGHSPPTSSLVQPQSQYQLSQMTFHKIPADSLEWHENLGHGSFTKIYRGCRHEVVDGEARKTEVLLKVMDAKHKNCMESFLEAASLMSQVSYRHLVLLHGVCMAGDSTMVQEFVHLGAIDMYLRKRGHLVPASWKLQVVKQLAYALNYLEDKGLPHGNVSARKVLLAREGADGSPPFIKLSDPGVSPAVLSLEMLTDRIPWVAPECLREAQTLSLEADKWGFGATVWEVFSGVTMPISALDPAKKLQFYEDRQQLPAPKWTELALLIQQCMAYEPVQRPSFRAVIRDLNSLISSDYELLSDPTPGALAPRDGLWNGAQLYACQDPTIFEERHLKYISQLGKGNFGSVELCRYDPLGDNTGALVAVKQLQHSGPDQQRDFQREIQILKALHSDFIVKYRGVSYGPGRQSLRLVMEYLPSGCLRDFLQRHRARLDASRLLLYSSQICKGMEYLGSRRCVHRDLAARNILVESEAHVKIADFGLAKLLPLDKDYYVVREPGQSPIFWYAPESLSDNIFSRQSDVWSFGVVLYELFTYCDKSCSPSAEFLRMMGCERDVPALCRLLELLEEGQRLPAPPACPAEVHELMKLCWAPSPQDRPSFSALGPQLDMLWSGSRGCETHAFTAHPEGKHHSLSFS

[6] = target: ROCK2 (Homo sapiens, UniProt O75116); experiment: biochemical; conditions: ROCK2, Table 17
Chain of ROCK2 (O75116 whole entry, species assumed): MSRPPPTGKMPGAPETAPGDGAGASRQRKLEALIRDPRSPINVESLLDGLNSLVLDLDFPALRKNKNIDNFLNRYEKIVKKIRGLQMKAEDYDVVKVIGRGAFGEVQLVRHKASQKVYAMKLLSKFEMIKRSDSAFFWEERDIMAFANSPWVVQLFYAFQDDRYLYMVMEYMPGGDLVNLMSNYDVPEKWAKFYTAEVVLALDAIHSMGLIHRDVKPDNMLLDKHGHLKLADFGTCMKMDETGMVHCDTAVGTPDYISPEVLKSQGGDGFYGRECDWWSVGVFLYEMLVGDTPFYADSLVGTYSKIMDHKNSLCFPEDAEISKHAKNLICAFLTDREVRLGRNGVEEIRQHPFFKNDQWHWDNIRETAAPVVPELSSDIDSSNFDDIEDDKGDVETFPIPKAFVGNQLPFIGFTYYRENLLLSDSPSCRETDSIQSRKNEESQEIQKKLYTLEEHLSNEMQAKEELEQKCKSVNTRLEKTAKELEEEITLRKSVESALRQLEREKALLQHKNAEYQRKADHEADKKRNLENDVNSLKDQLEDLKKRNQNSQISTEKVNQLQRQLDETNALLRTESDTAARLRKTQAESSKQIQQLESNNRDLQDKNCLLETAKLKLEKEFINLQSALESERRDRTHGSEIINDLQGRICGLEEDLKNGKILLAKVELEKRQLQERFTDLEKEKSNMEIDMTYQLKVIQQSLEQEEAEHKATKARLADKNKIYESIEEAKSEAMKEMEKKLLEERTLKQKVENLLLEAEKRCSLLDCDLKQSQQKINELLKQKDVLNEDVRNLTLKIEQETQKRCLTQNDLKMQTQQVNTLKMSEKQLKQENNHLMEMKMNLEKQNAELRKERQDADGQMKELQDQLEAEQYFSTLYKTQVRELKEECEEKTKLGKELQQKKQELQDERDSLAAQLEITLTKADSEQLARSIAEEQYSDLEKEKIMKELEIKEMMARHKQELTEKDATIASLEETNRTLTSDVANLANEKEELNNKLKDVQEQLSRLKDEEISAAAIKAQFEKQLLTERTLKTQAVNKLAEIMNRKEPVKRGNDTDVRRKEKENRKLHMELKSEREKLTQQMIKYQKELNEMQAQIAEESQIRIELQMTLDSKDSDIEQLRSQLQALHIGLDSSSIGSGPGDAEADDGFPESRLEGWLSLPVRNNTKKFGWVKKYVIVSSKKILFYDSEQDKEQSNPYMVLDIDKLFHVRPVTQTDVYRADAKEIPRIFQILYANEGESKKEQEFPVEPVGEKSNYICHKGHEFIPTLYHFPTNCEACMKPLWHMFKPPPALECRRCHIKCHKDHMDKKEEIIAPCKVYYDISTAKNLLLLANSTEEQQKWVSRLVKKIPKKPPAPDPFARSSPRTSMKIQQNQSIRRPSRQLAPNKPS

Chain of ROCK1 (Q13464 whole entry, species assumed): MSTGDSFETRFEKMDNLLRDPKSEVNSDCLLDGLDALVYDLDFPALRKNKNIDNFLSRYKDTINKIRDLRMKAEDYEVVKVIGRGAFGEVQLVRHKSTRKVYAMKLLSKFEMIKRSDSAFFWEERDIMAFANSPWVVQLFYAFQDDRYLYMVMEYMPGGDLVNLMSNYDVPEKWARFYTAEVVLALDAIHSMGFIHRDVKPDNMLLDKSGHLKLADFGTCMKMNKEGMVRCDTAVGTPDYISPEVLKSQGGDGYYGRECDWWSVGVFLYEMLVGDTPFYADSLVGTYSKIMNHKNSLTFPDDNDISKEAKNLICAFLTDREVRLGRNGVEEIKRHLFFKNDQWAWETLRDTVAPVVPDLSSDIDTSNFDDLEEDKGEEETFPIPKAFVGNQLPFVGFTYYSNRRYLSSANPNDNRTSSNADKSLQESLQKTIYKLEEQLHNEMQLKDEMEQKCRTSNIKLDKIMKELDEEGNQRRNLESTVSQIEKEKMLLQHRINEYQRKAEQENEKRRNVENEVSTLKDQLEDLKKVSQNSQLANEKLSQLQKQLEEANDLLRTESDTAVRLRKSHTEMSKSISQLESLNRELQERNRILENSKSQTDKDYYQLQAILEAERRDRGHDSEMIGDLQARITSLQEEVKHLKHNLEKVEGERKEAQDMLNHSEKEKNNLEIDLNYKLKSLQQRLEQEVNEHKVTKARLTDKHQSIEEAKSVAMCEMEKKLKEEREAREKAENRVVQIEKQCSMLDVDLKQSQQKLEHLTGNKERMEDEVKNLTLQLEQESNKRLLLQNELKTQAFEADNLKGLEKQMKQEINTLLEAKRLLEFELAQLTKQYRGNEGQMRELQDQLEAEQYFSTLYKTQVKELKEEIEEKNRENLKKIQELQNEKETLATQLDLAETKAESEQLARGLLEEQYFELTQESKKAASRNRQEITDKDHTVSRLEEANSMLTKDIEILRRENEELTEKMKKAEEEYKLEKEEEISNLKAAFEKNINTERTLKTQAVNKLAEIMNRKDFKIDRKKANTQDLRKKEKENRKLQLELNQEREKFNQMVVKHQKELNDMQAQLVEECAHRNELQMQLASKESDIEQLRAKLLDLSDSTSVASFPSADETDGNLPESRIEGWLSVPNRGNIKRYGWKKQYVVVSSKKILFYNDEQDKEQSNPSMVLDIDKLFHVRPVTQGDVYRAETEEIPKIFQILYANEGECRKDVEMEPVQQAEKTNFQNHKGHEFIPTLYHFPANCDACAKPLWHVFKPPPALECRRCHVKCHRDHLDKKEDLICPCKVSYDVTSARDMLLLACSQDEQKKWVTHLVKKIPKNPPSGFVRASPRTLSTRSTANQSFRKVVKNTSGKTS

Compound | changes (reductions) in rabbit IOP [1] | Ki [2] [µM] | Ki [3] [µM] | IC50 [4] [µM] | Ki [5] [µM] | Ki [6] [µM]
(1R,2R)—N-(fluoroisoquinolin-6-yl)-2-(4-(pyridinylmethyl)phenyl)cyclopropane-1-carboxamide | reductions |  |  |  |  | 
O=C(Nc1ccc2cnccc2c1F)[C@@H]1CC1c1ccc(S(=O)(=O)Nc2ccccn2)cc1 (mixture of isomers) [N-(5-fluoroisoquinolin-6-yl)-2-(4-(N-(pyridin-2-yl)sulfamoyl)phenyl)cyclopropane-1-carboxamide] |  | 0.144 | 0.0103 | 0.29 | 0.13 | 0.0049
